# Measurements taken from patent US20150086646A1, “ANESTHETIC NEUTRALIZATION METHODS” (Instigo Biotech Ltd., priority 2012, published 2015).
# System: Male rats (SD Rat)
# Test: Paw thermal sensitivity (Plantar test) in rats after regional anesthesia of the sciatic and saphenous nerves
# Type: in vivo
# Conditions: for response time relative to group 2 (anesthetic + buffer) / response time (average time before lifting the treated limb): 150 microliters at each locus; for elimination of effects of regional anesthesia (overall conclusion of the model): rat model, lidocaine HCl 2%/epinephrine 1:100,000 nerve block; for response time (average time before lifting the treated limb): 7 min after lidocaine HCl 2%/epinephrine 1:100,000, 5 minutes after administration, anesthetic + buffer group 20-35 seconds, no-anesthetic control 4-6 seconds
# Method: An animal model was performed to test ROS/RNS dosages and effects on sensory anesthesia following administration of regional anesthesia, as follows. Male rats (SD Rat) weighing between 300-350 grams, were supplied by Harlan, Israel, and were randomly assigned to experimental groups. Rats were provided with sterile rodent diet with free access to drinking water. In the animal model, a testing chamber (Plantar test 3730 apparatus, made by Ugo Basile) was used in which the rats were placed on a surface which is heated and increases heat gradually. A measurement of time from placement of the rat's hind limb on the hot surface to lifting the hind limb was recorded. […] All rats were habituated to the testing facilities for five days before the model, and then introduced into the testing chamber two days prior to the testing of regional anesthesia in order to habituate rats to the apparatus. One day prior to regional anesthetic administration, baseline body weight measurements and baseline paw thermal sensitivity were recorded. Rats were randomly divided into 7 groups having 4 rats in each group. Group 1 was not administered anesthesia, but was administered saline solution as a vehicle at the time of regional anesthetic administration to groups 2-7. Groups 2 through 7 were administered lidocaine HCl 2%/epinephrine 1:100,000 ready to use solution (hereinafter, “anesthetic,”) 7 minutes before administering test items. Regional anesthetic was injected around the sciatic and saphenous nerves at a volume of 150 microliters at each site of the rat's left hind limb. Injection around the saphenous nerve was performed via local injection to/next to the adductor canal which runs on the medial aspect of the thigh between the vastus medialis and the sartorius muscles, about 2-3 cm below the inguinal canal. Injection around the sciatic nerve was performed via local injection to the sciatic notch, positioned 1 mm from the femoral shaft between the greater trochanter and ischial tuberosity pointing toward the ischium. Five minutes after injection of regional anesthetic, an assessment of the nerve blocks was performed by pinching the rat's paw to determine if the regional anesthetics were properly administered. Seven minutes after regional anesthetic administration, test agents were administered to the same loci, in a volume of 150 microliters at each locus. Groups 1 and 2 were administered a vehicle buffer as test agents. Group 3 was administered 0.1 mM hydrogen peroxide, formulated in saline solution. […] PON which was administered to rats was prepared by commercially available sodium peroxynitrite in NaCl and NaOH each at a concentration of 0.3 molar, available from Cayman Chemical. The commercially available PON was diluted to the desired concentrations for injection, by forming a suspension in 0.3M NaCl, 0.1M glycine having a pH of 10.5. All rats were tested for paw thermal sensitivity at 5, 10, 15, 20, 60 and 120 minutes after administration of the test items using the testing chamber. The results of average time before lifting the treated limb in each rat for each time point was calculated and is depicted in FIG. 2.
SMILES,"response time relative to group 2 (anesthetic + buffer) (group 3: 0.1 mM hydrogen peroxide in saline, 5, 10 and 15 minute time points)","statistical significance of the effect on response time (group 3: 0.1 mM hydrogen peroxide, 4 rats per group)",elimination of effects of regional anesthesia (overall conclusion of the model),response time (average time before lifting the treated limb) (group 4: PON 40 mM) [s],response time (average time before lifting the treated limb) (group 5: PON 10 mM) [s],"response time relative to group 2 (anesthetic + buffer) (group 6: PON 1 mM, 5 and 10 minute time points)"
"OO [H2O2, hydrogen peroxide]",decreased response time,not statistically significant,effective in quickly eliminating effects of regional anesthesia,–,–,–
"O=NOO [PON, sodium peroxynitrite]",–,–,effective in quickly eliminating effects of regional anesthesia,4 to 6,4 to 6,improved response time
